Results as given in ChEMBL document CHEMBL1149920, “Synthesis and biological evaluation of an alkenyldiarylmethane (ADAM) which acts as a novel non-nucleoside HIV-1 reverse transcriptase inhibitor” (Bioorg Med Chem Lett, 1995).
Calls of active or inactive are those of the source. The rule behind the calls is not given here.

How the values were obtained:
PBL [1] = experiment: Concentration that provides 50% protection in the PBL cells infected with HIV-1 WEJO strain; format: functional, cell-based; details: Homo sapiens
PBL [2] = experiment: Concentration that provides 50% protection in the PBL cells infected with HIV-1 VIHU strain; format: functional, cell-based; details: Homo sapiens
MT4 [3] = experiment: Concentration that results in 50% death of MT-4 cells infected with SIV strain; no toxicity was observed; format: functional, cell-based; details: Homo sapiens
[4] = biological target: Human immunodeficiency virus type 1 reverse transcriptase (Human immunodeficiency virus 1, UniProt Q72547); experiment: Inhibitory activity against HIV-1 reverse transcriptase
MO/Mphi [5] = experiment: Concentration that results in 50% death of MO/Mphi cells infected with HIV-1 ADA strain; no toxicity was observed; format: functional, cell-based; details: Homo sapiens
MT4 [6] = experiment: Concentration that results in 50% death of MT-4 cells infected with HIV-1 6S strain; no toxicity was observed; format: functional, cell-based; details: Homo sapiens
MT4 [7] = experiment: Concentration that provides 50% protection in the MT-4 cells infected with AZT-resistant HIV-1 6S strain; format: functional, cell-based; details: Homo sapiens
MT4 [8] = experiment: Concentration that provides 50% protection in the MT-4 cells infected with nevirapine-resistant HIV-1 N119 strain; format: functional, cell-based; details: Homo sapiens
MT4 [9] = experiment: Concentration that results in 50% death of MT-4 cells infected with HIV-1 IIIB strain; no toxicity was observed; format: functional, cell-based; details: Homo sapiens
PBL [10] = experiment: Concentration that results in 50% death of PBL cells infected with HIV-1 BAKI strain; no toxicity was observed; format: functional, cell-based; details: Homo sapiens
MT4 [11] = experiment: Concentration that provides 50% protection in the MT-4 cells infected with pyridinone-resistant HIV-1 A17 strain; format: functional, cell-based; details: Homo sapiens
PBL [12] = experiment: Concentration that results in 50% death of PBL cells infected with HIV-1 VIHU strain; no toxicity was observed; format: functional, cell-based; details: Homo sapiens
MT4 [13] = experiment: Concentration that provides 50% protection in the MT-4 cells infected with SIV strain; format: functional, cell-based; details: Homo sapiens
MT4 [14] = experiment: Concentration that provides 50% protection in the MT-4 cells infected with HIV-1 IIIBstrain; format: functional, cell-based; details: Homo sapiens
MT4 [15] = experiment: Concentration that provides 50% protection in the MT-4 cells infected with AZT-resistant HIV-1 6R strain; format: functional, cell-based; details: Homo sapiens
MO/Mphi [16] = experiment: Concentration that provides 50% protection in the MO/Mphi cells infected with HIV-1 ADA strain; format: functional, cell-based; details: Homo sapiens
MT4 [17] = experiment: Concentration that results in 50% death of MT-4 cells infected with pyridinone-resistant HIV-1 A17 strain; no toxicity was observed; format: functional, cell-based; details: Homo sapiens
MO/Mphi [18] = experiment: Concentration that provides 50% protection in the MO/Mphi cells infected with HIV-1 Ba-L strain; format: functional, cell-based; details: Homo sapiens
PBL [19] = experiment: Concentration that provides 50% protection in the PBL cells infected with HIV-1 BAKI strain; format: functional, cell-based; details: Homo sapiens
MT4 [20] = experiment: Concentration that results in 50% death of MT-4 cells infected with Nevirapine resistant HIV-1 N119 strain; no toxicity was observed; format: functional, cell-based; details: Homo sapiens
CEM-SS = experiment: Concentration that provides 50% protection in the CEM-SS cells infected with HIV-2 strain; IA means inactive; format: functional, cell-based; details: Homo sapiens
PBL [21] = experiment: Concentration that results in 50% death of PBL cells infected with HIV-1 WEJO strain; no toxicity was observed; format: functional, cell-based; details: Homo sapiens
MT4 [22] = experiment: Concentration that results in 50% death of MT-4 cells infected with AZT resistant HIV-1 6R strain; no toxicity was observed; format: functional, cell-based; details: Homo sapiens
MO/Mphi [23] = experiment: Concentration that results in 50% death of MO/Mphi cells infected with HIV-1 Ba-L strain; no toxicity was observed; format: functional, cell-based; details: Homo sapiens

## CCCCCC=C(c1cc(Br)c(OC)c(C(=O)OC)c1)c1cc(Br)c(OC)c(C(=O)OC)c1
PBL [1]
  EC50: 10.2 µM
PBL [2]
  EC50: 24.9 µM
MT4 [3]
  IC50: > 200 µM
[4]
  IC50: 0.38 µM
MO/Mphi [5]
  IC50: > 200 µM
MT4 [6]
  IC50: > 200 µM
MT4 [7]
  EC50: 0.56 µM
MT4 [8]
  EC50: 151 µM
MT4 [9]
  IC50: > 200 µM
PBL [10]
  IC50: > 100 µM
MT4 [11]
  EC50: 14 µM
PBL [12]
  IC50: > 100 µM
MT4 [13]
  EC50: 136 µM
MT4 [14]
  EC50: 16 µM
MT4 [15]
  EC50: 6 µM
MO/Mphi [16]
  EC50: 1.85 µM
MT4 [17]
  IC50: > 200 µM
MO/Mphi [18]
  EC50: 5.5 µM
PBL [19]
  EC50: 15.2 µM
MT4 [20]
  IC50: > 200 µM
CEM-SS
  IA: inactive
PBL [21]
  IC50: > 100 µM
MT4 [22]
  IC50: > 200 µM
MO/Mphi [23]
  IC50: > 200 µM
